# Laboratory results taken from patent US11964980B2, “Crystalline forms of (S)-1-(4-fluorophenyl)-1-(2-(4-(6-(1-methyl-1H-pyrazol-4-yl)pyrrolo[2,1- f][1,2,4]triazin-4-yl)piperazinyl)-pyrimidin-5-yl)ethan-1-amine and methods of making” (Blueprint Medicines Corporation, priority 2019, dated 2024).
# Entries after “also recorded” stand apart in the source; their conditions may differ.
# Columns and labels:
# [1] = tested on: patients with unresectable GIST; experiment: Phase 1 dose escalation and expansion study in advanced GIST: safety; type: in vivo
# Experimental: Patients: Eligibility criteria for the phase 1 dose escalation and expansion study included provision of written informed consent, age ≥18 years, Eastern Cooperative Oncology Group performance status ≤2, and adequate end-organ function. The dose escalation part of the trial was open to patients with refractory solid tumors or unresectable GIST; however, only GIST patients were enrolled.
# Part 1 followed a 3+3 dose-escalation design, starting at 30 mg and continuing until the maximum tolerated dose (MTD) or the recommended phase 2 dose (RP2D) below the MTD was determined. Intrapatient dose escalation was permitted, and additional accrual was allowed to dose levels previously determined tolerable. The part 1 MTD was used to initiate the part 2 expansion.
# All patients underwent tumor imaging for response assessment via computed tomography (CT) or magnetic resonance imaging (MRI) at screening, every two cycles through and including cycle 13, then every three months until progression or discontinuation. Target and non-target lesions were identified and assessed per mRECIST 1.1 for GIST by independent, blinded, central radiographic review (BioTelemetry, Inc., Rockville, MD, USA). […]
# [2] = tested on: patients with indolent systemic mastocytosis; experiment: Phase 2 PIONEER trial Part 1: ISM-SAF symptom scores and MC-QoL; type: in vivo, human
# Experimental: This is a Phase 2, randomized, double-blind, placebo-controlled study comparing the efficacy and safety of Compound (I)+best supportive care (BSC) with placebo+BSC in patients with ISM and SSM whose symptoms are not adequately controlled by BSC. The study is conducted in three parts. In Part 1, the optimal dose Compound (I) (recommended phase 2 dose (RP2D)) was identified in patients with ISM. In Part 2, patients with ISM and SSM are randomly assigned to the RP2D of Compound (I) identified in Part 1+BSC, or to matching placebo+BSC. In Part 3, patients who have completed treatment in Part 1 or Part 2 of the study participate in a long-term extension, receiving Compound (I) at the RP2D+BSC.
# In Part 1, immediately after informed consent was obtained, management of SM symptoms was optimized, and BSC medication doses and schedules for SM symptom management were stabilized, if needed, over four weeks. Within five days after informed consent is obtained, ISM-SAF (ISM Symptom Assessment Form) data collection begins. The number of anaphylactic episodes treated with epinephrine and all concomitant medications received for any indication were collected from the time of informed consent.
# Once BSC was optimized (between Day −98 and Day −71) and doses were stable for ≥14 days, ISM-SAF data was collected for an additional 14 days to determine eligibility based on symptom severity i.e., to identify ISM and SSM patients having moderate-to-severe symptoms. Patients not meeting the symptom severity threshold were deemed screen failures and were not eligible for study participation. Patients having moderate-to-severe symptoms and meeting the threshold for symptom severity began other screening procedures, including the following: Bone marrow (BM) biopsy (an archival sample obtained within the preceding 24 weeks or a fresh sample) and skin biopsy of lesional and nonlesional skin (in patients with cutaneous mastocytosis (CM)) were performed for confirmation of SM diagnosis and quantification of mast cells (MCs); patients with CM (maculopapular) had skin photographs taken. Additional procedures include: magnetic resonance imaging/computed tomography scan of the brain; bone densitometry; serum tryptase, KIT D816 mutation testing; routine laboratory testing; ECG; and physical examination. All procedures are completed within a 6-week period before the final 14-day collection of baseline ISM-SAF symptoms is initiated.
# Once screening procedures were completed, patients had ISM-SAF data collected for another 2 weeks (14 days) to establish baseline scores, after which patients meeting all eligibility requirements were randomly assigned to treatment and began dosing.
# In Part 1 of the study, approximately 40 patients were randomly assigned to 1 of 3 doses of Compound (I) or to placebo. Each dose-level cohort and placebo group in Part 1 was composed of 10 patients. The 3 dose levels of Compound (I) were tested in parallel: 25, 50, and 100 mg. Patients, study staff, and the Sponsor were blinded to treatment assignment.
# Compound (I) was administered orally, once a day in continuous 28-day cycles. Patients were assessed weekly for the first 4 weeks, then every 4 weeks (until the RP2D was determined) for safety, laboratory monitoring, and quality of life (QoL) assessments. Intensive pharmacokinetic (PK) sampling was performed in all patients. The ISM-SAF was completed once a day. After completion of 12 weeks of treatment, BM and skin biopsy were repeated for MC quantification and skin photographs were taken in patients with baseline CM.
# The RP2D was determined based on the efficacy, safety, and PK at each dose level. The primary evaluation of efficacy was the symptom improvement using the ISM-SAF. The primary criterion for selection of the RP2D was the dose of Compound (I) that produces the maximum reduction in total symptom score (TSS), as assessed using the ISM-SAF at Week 12 compared with Baseline (Day −14 to Day −1). […]
smiles,measurement,setting,value
"Cn1cc(-c2cc3c(N4CCN(c5ncc([C@@](C)(N)c6ccc(F)cc6)cn5)CC4)ncnn3c2)cn1 [Compound (I), (S)-1-(4-fluorophenyl)-1-(2-(4-(6-(1-methyl-1H-pyrazol-4-yl)pyrrolo[2,1-f][1,2,4]triazin-4-yl)piperazin-1-yl)pyrimidin-5-yl)ethan-1-amine]","Decreased appetite, Grade 1/2 event",[1]; 300 mg dose,38%
same,"Diarrhea, Grade 1/2 event",[1]; 300 mg dose,41%
same,"Fatigue, Grade 1/2 event",[1]; 300 mg dose,38%
same,"Nausea, Grade 1/2 event",[1]; 300 mg dose,69%
same,Patients with cycle 1 dose-limiting toxicities,"[1]; 600 mg once daily, Part 1",Two
same,Patients requiring at least one dose reduction or treatment interruption,[1]; 69 patients,84%
same,Discontinuation for adverse events considered related to Compound (I),[1]; 82 patients enrolled,12%
same,Reason for treatment discontinuation: adverse events,[1]; 82 patients enrolled,34%
same,Reason for treatment discontinuation: disease progression,[1]; 82 patients enrolled,59%
same,Treatment-related deaths,[1]; 82 patients enrolled,no treatment-related deaths
same,Patients who discontinued treatment,[1]; 82 patients enrolled (44 patients),54%
same,"Fatigue, most common event",[1]; 400-mg dose,47%
same,"Nausea, most common event",[1]; 400-mg dose,71%
same,"Periorbital edema, most common event",[1]; 400-mg dose,47%
same,"Vomiting, most common event",[1]; 400-mg dose,47%
same,Discontinuation for adverse events considered related to Compound (I),[1]; PDGFRA D842V population,14%
same,Reason for treatment discontinuation: adverse events,[1]; PDGFRA D842V population,63%
same,Reason for treatment discontinuation: disease progression,[1]; PDGFRA D842V population,21%
same,Patients who discontinued treatment,[1]; PDGFRA D842V population (19/56),34%
same,"Events resulting in treatment discontinuation, patients",[1]; as printed after the 300 mg Grade 1/2 events (2 patients),2%
same,"Events primarily Grade 1, patients",[1]; as printed after the 300 mg Grade 1/2 events (19 patients),23%
same,Intracranial hemorrhage,"[1]; both events Grade 3, non-fatal",2 patients
same,Cycle-1 dose limiting toxicity,"[1]; doses of 30 to 400 mg per day, Part 1",No cycle-1 dose limiting toxicity
same,Maximum tolerated dose,"[1]; once daily, oral",400 mg
same,Recommended phase 2 dose,"[1]; once daily, oral, GIST",300 mg
same,"Anemia, Grade 3/4 event",[1]; regardless of dose,30%
same,"Grade 3/4 events, patients",[1]; regardless of dose (47 patients),57%
same,Grade of most treatment-related adverse events,[1]; safety population,grade 1 or 2
same,Encephalopathy,[1]; safety population (2 patients),2%
same,Confusional state,[1]; safety population (7 patients),9%
same,Cognitive disorder,[1]; safety population (8 patients),10%
same,"Cognitive effects, patients",[1]; safety population (33 patients),40%
same,Memory impairment,[1]; safety population (n=25),30%
same,Mean percent change in ISM-SAF TSS,"[2]; 25 mg QD (n = 9), at 16 weeks",−31%
same,Mean percent change in ISM-SAF gastrointestinal domain,"[2]; 25 mg QD (n = 9), at 16 weeks",−25%
same,Mean percent change in ISM-SAF neurological symptoms,"[2]; 25 mg QD (n = 9), at 16 weeks",−26%
same,Mean percent change in ISM-SAF skin domain,"[2]; 25 mg QD (n = 9), at 16 weeks",−37%
same,Mean reduction in total MC-QoL score,"[2]; 25 mg QD (seven patients), 16 weeks",34%
same,"Mean reduction in total symptom score (TSS), ISM-SAF","[2]; 25 mg QD, baseline to 16 weeks",31%
same,"Quality of life, MC-QoL overall score and domain scores","[2]; 25 mg QD, week 16",improvements in quality of life; also recorded: improvements in all four domains
same,Reduction in ISM-SAF TSS and each symptom in the total domain score,"[2]; 25 mg once daily, 16 weeks",statistically significant reduction
same,Mean improvement in ISM-SAF TSS,"[2]; across all Compound (I) dose cohorts, 16 weeks, p=0.001 vs placebo",approximately 30%
